These results are taken from a melting point compilation (Tetko et al.; mined from patent text by program, amines drawn as free bases though some values may be those of a salt).

The term melting point denotes the temperature of the solid-liquid transition.

`CC(=O)Nc1cccc2c1C1(COc3cc4c(cc31)OCCO4)C(=O)N2C` (stereo not given) gave a melting point of 182 to 184 °C.
`Cc1c([N+](=O)[O-])ccc2c1SC1(Cl)C=C(C(F)(F)F)C=C(Cl)C1O2` (stereo not given) had a melting point of 135 °C.
The same measure for `CCOC(=O)c1cnc(C)nc1NCc1ccc(-c2ccccc2-c2nnnn2C(c2ccccc2)(c2ccccc2)c2ccccc2)cc1`: 155 to 156 °C; for `Cc1cccc(NC(=O)NC2N=C(c3ccccc3F)c3cccc(C)c3N(CC(=O)c3ccccc3C)C2=O)c1` (stereo not given): 190 to 196 °C; for `Cc1cccc(CCOc2ccc(C=C3SC(=O)NC3=O)cc2)n1`: 180 to 182 °C.
Turning to `CCCNC(=O)n1nc(Oc2ccc(C(F)(F)F)cc2[N+](=O)[O-])cc1C`, the melting point fell in the range of 50 to 51 °C.
In the case of `CCCCCCCCCCCCC(=O)CC#CCCCC(=O)O`, the melting point was in the range of 79 to 80.5 °C.
`CCOc1cc2c(cc1S(=O)(=O)NC(=S)NC)C(CNC(=O)N1CC(C)=C(CC)C1=O)CCO2` (stereo not given) had a melting point of 178 °C.
Next, `CC(=O)n1cc(C#N)c(-c2cccc(Cl)c2F)c1`: 141 to 142 °C; `c1ccc(-c2ccc(CCNc3ccncc3)cc2)cc1`: 140 °C; `Nc1nccnc1Cc1ccccc1`: 93 to 96 °C.
Next, `COc1cc2ccc(C)cc2c(C)c1OC`: 68 to 69 °C; `COc1ccc(Cn2c(=O)[nH]c3nccnc3c2=O)cc1`: 233 to 234 °C.
Next, `COc1ccc(CC2NC(=O)NC2=O)cc1OC1CCCC1` (stereo not given): 151 to 153 °C; `CCOC(=O)Cc1c(C)n(Cc2ccc(Cl)cc2)c2cccc(OCc3csc(-c4ccc(Cl)cc4)n3)c12`: 133 to 135 °C; `CCCCCc1c(C(=O)OCC)oc2cc(OC)ccc12`: 38 to 41 °C.
`O=[N+]([O-])c1ccc(CN2CC=C(/C=C/c3ccccc3)CC2)cc1` came in with a melting point of 142 to 144 °C.
The same measure for `O=C(O)c1cc(Cl)c(-n2ccc(C(F)(F)F)cc2=O)c(Cl)c1`: 259 to 260 °C; for `COc1ccc(Nc2nc(-c3ccncc3)nc3ccccc23)cc1Cl`: > 220 °C.
For `O=C1c2ccccc2C(=O)N1CCON=C1c2ccccc2-n2cccc21`, the melting point was determined as 195 °C.
For `CC(c1ccccc1N1CCCCC1)C(C(N)=O)c1ccc(C(=O)OCc2ccccc2)cc1` (stereo not given), the melting point was 126 to 128 °C.
Compound `CCCn1c(=O)c(C=C(C#N)C#N)c2n(c1=O)CCS2` came in with a melting point of 135 to 137 °C.
Compound `CSc1ccccc1C1C(=O)c2ccccc2C1=O` registered a melting point of 191 to 193 °C.
Next, `C[C@@H](Nc1ncnc2cc(N)ncc12)c1ccccc1`: 232 °C.
For the compound `Cc1oc(-c2ccccc2)nc1CCCc1ccc(CC(C(=O)O)c2cccnc2)cc1` (stereo not given), the melting point was in the range of 112 to 114 °C.
Consider `Cc1c(Br)c(=O)n(C2CCCC2)c2nc(Nc3ccccn3)ncc12`, for which the melting point was 267 to 268 °C.
On to `O=C(Cc1ccnc(Cl)n1)c1ccc(F)cc1`, for which the melting point lay within 112 to 113 °C.
Next, `C=C(C)C(=O)OCCOc1ccc(C(=O)O)cc1`: 146 °C.
The same measure for `CN1C(=O)C2(COc3cc4c(cc32)OCCO4)c2c(NC(=O)C3CCCCC3)cccc21` (stereo not given): 96 to 98 °C; for `NN1CCC[C@H]1C(=O)O`: 153 to 154 °C; for `O=C1NC(=O)c2c1c(-c1c(Cl)cccc1Cl)cc1c2c2cc(O)ccc2n1CCCBr`: 273 to 276 °C.
The same measure for `Cc1cnc(C2=NC(C)(C(C)C)C(=O)N2)c(C(=O)c2cccs2)c1` (stereo not given): 168 to 170 °C.
`O=C(Nc1ccc(C(F)(F)F)cc1)NC1CCOCC1` came in with a melting point of 196 to 198 °C.
As to `O=C1Cc2c(ccc3ccc(C(O)C(F)(F)F)cc23)O1` (stereo not given), the melting point lay within 208 to 209 °C.
`CSCCC(=O)N(C)c1cnc(-c2cccnc2)s1`: the melting point is 116 to 118 °C.
Next, `CC(=O)NNC1=Nc2sc(Cl)cc2C(c2ccccn2)=NC1`: 193 to 195 °C; `CN1CCc2nc3ccc(Cl)cc3c(Oc3ccccc3)c2C1`: 182 to 184 °C; `COC(=O)c1cc(I)cc2c(=O)cc[nH]c12`: 75 to 77 °C.
For the compound `O=C(Nc1ccc(CBr)c(C(F)(F)F)c1)C(F)(F)F`, the melting point lay in the range of 119 to 120 °C.
In turn, `COC(=O)c1cn(-c2cc(C(=O)OC)c(N)cc2C(F)(F)F)cn1` had a melting point of 206 to 208 °C.
In turn, `C1=Nc2ccccc2OC1` registered a melting point of 126 to 129 °C.
In turn, `COc1cc(CCCO)ccc1OCc1coc(/C=C/c2ccccc2)n1` showed a melting point of 95 to 96 °C.
The same measure for `O=C(O)C1=Cc2cc(C#Cc3ccccc3)ccc2NC1C(F)(F)F` (stereo not given): 218 to 219 °C; for `Cc1cn(COCCOC(=O)c2ccccc2)c(=O)[nH]c1=O`: 94 to 99 °C.
On to `CC(C)c1cc(C=C2C(=O)NC(=O)N2C)cc(C(C)C)c1O`, for which the melting point is 197 to 208 °C.
Next, `S=c1sc2ccccc2n1CNc1ccccc1`: 102 to 103 °C.
As for `Cc1c(C)c2c(c(C)c1NC(=O)c1ccc(F)cc1)C(c1ccc(C(C)C)cc1)C1(CCN(C)CC1)O2` (stereo not given), the melting point was in the range of 271 to 272 °C.
`CC(=O)Nc1c(C(O)(C(F)(F)F)C(F)(F)F)ccc2ccccc12` returned a melting point of 155 to 156 °C.
In turn, `O=c1oc(CO)nn1Cc1ccccc1` returned a melting point of 54 °C.
Next, `COc1ccc2c(c1)Sc1cc(OC(C)=O)c3ccccc3c1N2`: 156 to 158 °C; `O=S(=O)(Nc1cc(-c2ncc(C(F)(F)F)cc2Cl)ccc1Cl)c1ccc(Cl)cc1`: 156 to 157 °C.
`Cn1cc(-c2cccc(C(=O)O)c2)c(=O)c(-n2cccn2)c1` returned a melting point of 280 °C.
`COC(=O)c1cc([N+](=O)[O-])c(C(F)(F)F)cc1N` returned a melting point of 175 to 177 °C.
The compound `COCCCCCC(=NO)c1ccc(Cl)c(Cl)c1` registered a melting point of 53 to 54.5 °C.
Consider `CSc1ccc(-c2ccc(C(=O)Nc3ccc4cc(CN5CCCC5)cnc4c3C)c(F)c2)cc1`, for which the melting point fell in the range of 189 to 190 °C.
Next, `CCOC(=O)C=CN1C(C)(C)CC(OC(=O)CCl)CC1(C)C`: 80 to 82 °C.
`NCC1Cc2cc(C(F)(F)F)cc(-c3ccoc3)c2O1` (stereo not given): the melting point is > 250 °C.
The same measure for `Cc1ccc2cc3nc4cccc(Cl)c4c-3[nH]c2c1`: 193 to 194 °C; for `C=CCSc1ncn(C(=O)N(CC=C)CC=C)n1`: 27 to 30 °C; for `CCOC(=O)C(=O)Nc1coc2cc(OC)ccc2c1=O`: 218 to 220 °C.
Next, `CCC(Cc1cccc(F)c1)n1nnc2cc3c(cc2c1=O)OC1CCCN1C3=O` (stereo not given): 117 to 119 °C; `CC(=O)c1cccc(S(=O)(=O)NCc2ccccc2-c2ccccc2C(=O)NCc2ccccc2)c1`: 182 °C; `CN=c1nc(N)nc2sc3cc(OC)ccc3n12`: 208 to 209 °C.
`Cc1cc(-c2cc(=O)c3ccccc3o2)cc(C)c1O` returned a melting point of 255 to 256 °C.
Next, `CNC(=O)Cn1c(-c2ccc(C)cc2)nc2ccc(Cl)nc21`: > 250 °C; `COc1ccc(Nc2nc(Nc3ccc(OC)c(Cl)c3)nc(NC3CCCCCC3)n2)cc1Cl`: 183 °C; `COc1cc(Cl)cc(Cl)c1C=O`: 110 to 111 °C.
`CC(C)c1cccc(C(C)C)c1NC(=O)C1CC(c2ccc(F)cc2)OC1=O` (stereo not given) had a melting point of 203 to 205 °C.
On to `CN1CCC(OC(c2cccc(N)c2)c2nc3ccccc3[nH]2)CC1` (stereo not given), for which the melting point worked out at 100 °C.
The compound `COCc1nc(C(=O)OC)c(C(=O)OC)[nH]1` displayed a melting point of 93 to 95 °C.
`O=C(O)C#Cc1c(Cl)cc(Cl)cc1Cl` had a melting point of 170 to 175 °C.
For the compound `CCNc1nc(-c2ccc(NC(=O)NCc3cccnc3)cc2)ccc1C(=O)NC`, the melting point was 260 to 263 °C.
The same measure for `CC#CCOc1ccc(SC(C(=O)NO)C(C)C)cc1` (stereo not given): 128 °C.
`Cc1c(C(=O)N2CCC[C@H](C)C2)[nH]c2ccccc12` gave a melting point of 198 to 200 °C.
With `Cc1cc(-c2c(-c3ccc(S(N)(=O)=O)cc3)cnn(-c3cccc(Cl)c3)c2=O)ccc1F`, the melting point was in the range of 187 to 188 °C.
As for `CC(C)(OCCN1C(=O)c2ccccc2C1=O)OCCN1C(=O)c2ccccc2C1=O`, the melting point fell in the range of 139 to 141 °C.
The compound `CC(CCCC1(C(=O)NCC(F)(F)F)c2ccccc2-c2ccccc21)N1CCC(NC(=O)OC(C)(C)C)CC1` (stereo not given) yielded a melting point of 58 to 60 °C.
The same measure for `CC1(C)Oc2ccc(C#N)cc2[C@@H](NC(=O)CCl)[C@@H]1O` (relative stereo): 196 to 197 °C; for `CCCC(=O)C(=CNc1ccc(OCC)c(C)n1)C(=O)OCC`: 117 to 120 °C; for `COc1cc2c(cc1OC)C(c1ccnc(-n3nc(-c4cccnc4)c4ccccc4c3=O)c1)=N[C@H](CO)C2`: 235 to 238 °C.
Compound `CCOC(=O)/C(=N\O)N1N=C(N)C(Cc2ccccc2)C1=O` (stereo not given) displayed a melting point of 102 to 108 °C.
With `CC(=O)N(C)c1c(C(=O)c2cccc(Cl)c2)[nH]c2cc(Cl)ccc12`, the melting point lay within 202 to 203 °C.
`CC(C)(C)c1ccc(-c2nc(COc3cccc4cc(NS(=O)(=O)C(F)(F)F)ccc34)cs2)cc1` displayed a melting point of 174 to 175 °C.
The same measure for `CCCn1c(COCC)nc2c(N)nc3ccc(OCc4cccnc4)cc3c21`: 190 to 191 °C; for `COC(=O)c1cc(OC)c(N(C)C)c(OC)c1`: 71 to 72 °C; for `O=C(Nc1ccc([N+](=O)[O-])cc1)c1ccccc1Br`: 200 to 202 °C.
Compound `CCN1C(=O)CCCc2ccc(Nc3ncc(Br)c(Nc4c(F)cccc4C(=O)NC)n3)cc21` yielded a melting point of 231 to 232 °C.
`CCCc1nc2c(N)nc3cccnc3c2n1CCCC(=O)N1CCOCC1`: the melting point lay in the range of 196 to 197 °C.
`Nc1ccccc1NCCCCCCCCCCCCNc1ccccc1N` gave a melting point of 85 to 88 °C.
In turn, `CCOC1CC(n2cc(CC)c(=O)[nH]c2=O)OC1CN` (stereo not given) gave a melting point of 122 to 123 °C.
